Assay results taken from ChEMBL document CHEMBL4130413, “1-Aryl-1H- and 2-aryl-2H-1,2,3-triazole derivatives blockade P2X7 receptor in vitro and inflammatory response in vivo” (Eur J Med Chem, 2017).
The source made the active and inactive calls. The rule behind the calls is not given here.

Legend:
Mus musculus [1] = experiment: Anti-inflammatory activity in Swiss mouse assessed as inhibition of LPS-induced pleural accumulation in eosinophils at 1 to 100 ng/kg, ip pretreated for 1 hr followed by LPS stimulation and measured after 24 hrs by May-Grunwald-Giemsa staining-based Neubauer chamber based optical microscopy; assay type: functional, organism-based
P2X purinoceptor 7 [2] = molecular target: T1, P2X purinoceptor 7 (Homo sapiens, UniProt Q99572); experiment: Antagonist activity at human P2X7 receptor expressed in HEK293 cells assessed as inhibition of ATP-induced ethidium iodide uptake preincubated for 10 mins followed by ATP addition measured after 20 mins by spectrofluorometric analysis; assay type: cell-based
T1 sequence (Q99572 whole entry): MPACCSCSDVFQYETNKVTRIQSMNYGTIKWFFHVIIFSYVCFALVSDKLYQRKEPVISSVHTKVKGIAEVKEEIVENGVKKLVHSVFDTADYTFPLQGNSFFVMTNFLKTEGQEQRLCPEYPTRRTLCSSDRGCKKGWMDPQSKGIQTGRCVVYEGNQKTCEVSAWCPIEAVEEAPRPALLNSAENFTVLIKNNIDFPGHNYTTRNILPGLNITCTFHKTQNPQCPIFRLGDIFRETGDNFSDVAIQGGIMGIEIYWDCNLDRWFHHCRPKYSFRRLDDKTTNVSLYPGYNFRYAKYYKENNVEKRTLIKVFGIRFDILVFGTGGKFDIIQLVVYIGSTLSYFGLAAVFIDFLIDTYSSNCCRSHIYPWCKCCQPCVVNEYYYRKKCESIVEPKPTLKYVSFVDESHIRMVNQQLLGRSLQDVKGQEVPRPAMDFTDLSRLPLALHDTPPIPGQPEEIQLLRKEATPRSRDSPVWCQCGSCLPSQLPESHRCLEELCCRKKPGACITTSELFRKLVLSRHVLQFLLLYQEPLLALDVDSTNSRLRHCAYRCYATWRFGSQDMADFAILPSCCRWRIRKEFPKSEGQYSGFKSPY

[3] = Intrinsic clearance in mouse liver microsomes assessed per mg protein at 1 uM measured up to 45 mins; assay type: ADME, microsome; details: read-out: CLH
[4] = molecular target: T2, P2X purinoceptor 7 (Homo sapiens) (UniProt Q99572); experiment: Antagonist activity at human P2X7 receptor expressed in HEK293 cells assessed as inhibition of ATP-induced ethidium iodide uptake at 10 uM preincubated for 10 mins followed by ATP addition measured after 20 mins by FLIPR assay relative to 1 mM ATP; assay type: cell-based
T2 sequence (whole entry): T1 sequence (Q99572 whole entry)

P2X purinoceptor 7 [5] = molecular target: T3, P2X purinoceptor 7 (Mus musculus, UniProt Q9Z1M0); experiment: Antagonist activity at P2X7 receptor in Swiss mouse peritoneal macrophages assessed as inhibition of BzATP-induced ethidium iodide uptake after 30 mins by spectrofluorometric analysis
T3 sequence (Q9Z1M0 whole entry): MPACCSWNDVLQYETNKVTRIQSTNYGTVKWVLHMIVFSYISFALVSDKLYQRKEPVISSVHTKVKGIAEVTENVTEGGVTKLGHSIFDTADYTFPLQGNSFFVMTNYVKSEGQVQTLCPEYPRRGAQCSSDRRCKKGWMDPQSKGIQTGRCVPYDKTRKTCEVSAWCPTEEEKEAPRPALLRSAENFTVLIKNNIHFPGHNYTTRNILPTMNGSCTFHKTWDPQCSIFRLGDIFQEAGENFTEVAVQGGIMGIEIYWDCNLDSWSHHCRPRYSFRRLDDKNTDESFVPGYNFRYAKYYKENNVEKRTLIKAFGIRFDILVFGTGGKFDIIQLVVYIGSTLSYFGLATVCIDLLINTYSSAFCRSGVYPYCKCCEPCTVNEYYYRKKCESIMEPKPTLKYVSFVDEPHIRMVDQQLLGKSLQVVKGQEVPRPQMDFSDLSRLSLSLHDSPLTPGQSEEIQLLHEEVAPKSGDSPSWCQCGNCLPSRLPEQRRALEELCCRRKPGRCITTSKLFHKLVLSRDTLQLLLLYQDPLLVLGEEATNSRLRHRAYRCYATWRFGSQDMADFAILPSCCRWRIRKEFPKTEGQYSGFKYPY

P2X purinoceptor 7 [6] = molecular target: T3, P2X purinoceptor 7; experiment: (§1) Antagonist activity at P2X7 receptor in Swiss mouse peritoneal macrophages assessed as inhibition of ATP-induced propidium iodide uptake after 25 mins by flow cytometric analysis
[7] = molecular target: T4, P2X purinoceptor 7 (Mus musculus) (UniProt Q9Z1M0); experiment: as §1
T4 sequence (whole entry): T3 sequence (Q9Z1M0 whole entry)

Peritoneal macrophage = experiment: Toxicity in Swiss mouse peritoneal macrophages assessed as LDH release at 10 uM after 60 mins relative to 0.05% Triton X-100; assay type: cell-based; details: 1 h
[8] = Cytotoxicity against Swiss mouse peritoneal macrophages after 24 hrs by LDH-release assay; assay type: cell-based, Peritoneal macrophage
[9] = Kinetic solubility in pH 4 citrate buffer at 1 to 250 uM after 2 hrs; assay type: physicochemical; details: read-out: Kinetic_solubility
[10] = n-Octanol/PBS distribution coefficient, log D of the compound at pH 7.4 at 25 mM after 2 hrs; assay type: physicochemical
Mus musculus [11] = experiment: Anti-inflammatory activity in ip dosed Swiss Webster mouse assessed as inhibition of carrageenan-induced paw edema pretreated for 60 mins followed by carrageenan administration and measured after 30 mins; assay type: functional
P2X purinoceptor 7 [12] = molecular target: T3, P2X purinoceptor 7; experiment: Antagonist activity at P2X7 receptor in Swiss mouse peritoneal macrophages assessed as inhibition of ATP-induced current at holding potential of -60 mV preincubated for 5 mins followed by ATP addition measured after 5 mins by Whole cell patch-clamp analysis
[13] = Intrinsic clearance in human liver microsomes assessed per mg protein at 1 uM measured up to 45 mins; assay type: ADME, microsome; details: read-out: CLH
[14] = Kinetic solubility in pH 7.4 phosphate buffer at 1 to 250 uM after 2 hrs; assay type: physicochemical; details: read-out: Kinetic_solubility
[15] = Kinetic solubility in pH 2 hydrochloride buffer at 1 to 250 uM after 2 hrs; assay type: physicochemical; details: read-out: Kinetic_solubility
Mus musculus [16] = experiment: Anti-inflammatory activity in Swiss mouse assessed as inhibition of LPS-induced pleural accumulation in mononuclear cells at 1 to 100 ng/kg, ip pretreated for 1 hr followed by LPS stimulation and measured after 24 hrs by May-Grunwald-Giemsa staining-based Neubauer chamber based optical microscopy; assay type: functional, organism-based
Mus musculus [17] = experiment: Anti-inflammatory activity in Swiss mouse assessed as inhibition of LPS-induced pleural accumulation in neutrophils cells at 100 mg/kg, ip pretreated for 1 hr followed by LPS stimulation and measured after 24 hrs by May-Grunwald-Giemsa staining-based Neubauer chamber based optical microscopy; assay type: functional, organism-based
Mus musculus [18] = experiment: Anti-inflammatory activity in Swiss mouse assessed as inhibition of LPS-induced pleural accumulation in total leucocytes at 100 mg/kg, ip pretreated for 1 hr followed by LPS stimulation and measured after 24 hrs by May-Grunwald-Giemsa staining-based Neubauer chamber based optical microscopy; assay type: functional, organism-based
Mus musculus [19] = experiment: Anti-inflammatory activity in Swiss mouse assessed as inhibition of LPS-induced nitric oxide production in pleural washes at 100 mg/kg, ip pretreated for 1 hr followed by LPS stimulation and measured after 24 hrs by Lowry/Griess analysis; assay type: functional, organism-based
Mus musculus [20] = experiment: Anti-inflammatory activity in Swiss mouse assessed as inhibition of LPS-induced nitric oxide production in pleural washes at 100 ng/kg, ip pretreated for 1 hr followed by LPS stimulation measured after 24 hrs by Lowry/Griess analysis; assay type: functional, organism-based
Mus musculus [21] = experiment: Anti-inflammatory activity in Swiss mouse assessed as inhibition of LPS-induced protein extravasation in thoracic cavity at 100 mg/kg, ip pretreated for 1 hr followed by LPS stimulation and measured after 24 hrs; assay type: functional, organism-based

CCOCc1cn(-c2ccc(Cl)cc2)nn1
Activity (Mus musculus [1]): inactive | IC50 (P2X purinoceptor 7 [2]): 5.3 nM | microsomal CLint at 1 µM [3]: 22.2 µL/min/mg | inhibition [4]: 96.9% | IC50 (P2X purinoceptor 7 [5]): 59.2 nM | IC50 (P2X purinoceptor 7 [6]): 83 nM | inhibition [7]: Dose-dependent effect | Activity (Peritoneal macrophage): 8.33% | CC50 at 24 h [8]: 4030 nM | solubility kinetic at 2 h [9]: < 250 µM | logD at 2 h, 25000 µM [10]: -1.96 | Activity (Mus musculus [11]): Dose-dependent effect | ID50 (Mus musculus [11]): 0.09435 µg/kg | IC50 (P2X purinoceptor 7 [12]): 69 nM | microsomal CLint at 1 µM [13]: 30.2 µL/min/mg | solubility kinetic at 2 h [14]: < 250 µM | solubility kinetic at 2 h [15]: < 250 µM | Activity (Mus musculus [16]): Active

O=C(O)Cc1ccccc1Nc1c(Cl)cccc1Cl [DICLOFENAC]
Activity (Mus musculus [17]): inactive | Activity (Mus musculus [18]): Active | Activity (Mus musculus [19]): inactive | Activity (Mus musculus [20]): inactive | Activity (Mus musculus [21]): inactive
